How the values were obtained:
[1] = tested on: female C57BL/6 mice; experiment: Determination of maximum tolerated dose (MTD), highest oral dose without hypercalcemia (serum calcium); assay type: in vivo; details: eight week-old female C57BL/6 mice, p.o. daily for four days in miglyol; highest dose without hypercalcemia (serum calcium >10.7 mg/dl) on day five
Protocol: (§1) The maximum tolerated dose of the vitamin D3 compounds of the invention were determined in eight week-old female C57BL/6 mice (3 mice/group) dosed orally (0.1 ml/mouse) with various concentrations of Vitamin D3 analogs daily for four days. Analogs were formulated in miglyol for a final concentration of 10, 30, 100 and 300 μg/kg when given at 0.1 ml/mouse p.o. daily. Blood for serum calcium assay was drawn by tail bleed on day five, the final day of the study. Serum calcium levels were determined using a colorimetric assay (Sigma Diagnostics, procedure no. 597). The highest dose of analog tolerated without inducing hypercalcemia (serum calcium >10.7 mg/dl) was taken as the maximum tolerated does (MTD).

[2] = tested on: IFN-γ production; experiment: IFN-γ production by allogeneic T cell activation in the mixed leukocyte response (MLR); assay type: cell-based; details: MLR of allogeneic PBMC from 2 different donors, 5 days, IFN-γ by ELISA, 50% inhibition of IFN-γ production
Protocol: Immature dendritic cells (DC) were prepared as described in Romani, N. et al., J. Immunol. Meth. 196:137. IFN-γ production by allogeneic T cell activation in the mixed leukocyte response (MLR) was determined as described in Penna, G., et al., J. Immunol., 164: 2405-2411 (2000).
Briefly, peripheral blood mononuclear cells (PBMC) were separated from buffy coats by Ficoll gradient and the same number (3×105) of allogeneic PBMC from 2 different donors were co-cultured in 96-well flat-bottom plates. After 5 days, IFN-γ production in the MLR assay was measured by ELISA and the results expressed as amount (nM) of test compound required to induce 50% inhibition of IFN-γ production (IC50) (Table 1).

[3] = Determination of maximum tolerated dose (MTD), highest oral dose without hypercalcemia (serum calcium); assay type: in vivo; details: mouse, in vivo, po; eight week-old female C57BL/6 mice, p.o. daily for four days in miglyol; highest dose without hypercalcemia (serum calcium >10.7 mg/dl) on day five; read-out: MTD (mice)
Protocol: as §1

For “1α-Fluoro-25-hydroxy-20S-20-(4-hydroxy-5,5,5-trideutero-4-trideuteromethyl-pentyl)-23E-ene-26,27-hexafluorocholecalciferol [Compound 21]”, the “MTD (mice)” value [1] was 0.01 mg/kg and the IC50 [2] was 0.0071 nM.

`C=C1/C(=C\C=C2/CCC[C@@]3(C)C2CC[C@@H]3[C@](C)(CC#CC(O)(C(F)(F)F)C(F)(F)F)CCCC(C)(C)O)CC(O)C[C@@H]1F` (stereo partly drawn) [Compound 13, (20S)-1α-Fluoro-25-hydroxy-20-(5,5,5-trifluoro-4-hydroxy-4-trifluoromethyl-pent-2-ynyl)-cholecalciferol] showed an MTD at 4 days [3] of 0.1 mg/kg and an IC50 ([2]; 120 h) of 0.358 nM.

`C=C1/C(=C\C=C2/CCC[C@@]3(C)C2CC[C@@H]3[C@](C)(C/C=C\C(O)(C(F)(F)F)C(F)(F)F)CCCC(C)(C)O)CC(O)C[C@@H]1F` (stereo partly drawn) [Compound 14, (20S)-1α-Fluoro-25-hydroxy-20-[(2Z)-5,5,5-trifluoro-4-hydroxy-4-trifluoromethyl-pent-2-enyl]-cholecalciferol] showed an MTD at 4 days [3] of 0.1 mg/kg and an IC50 ([2]; 120 h) of 1.01 nM.

Molecule `C=C1/C(=C\C=C2/CCC[C@@]3(C)C2CC[C@@H]3[C@](C)(C/C=C/C(O)(C(F)(F)F)C(F)(F)F)CCCC(C)(C)O)CC(O)C[C@@H]1F` (stereo partly drawn) [Compound 15, (20S)-1α-Fluoro-25-hydroxy-20-[(2E)-5,5,5-trifluoro-4-hydroxy-4-trifluoromethyl-pent-2-enyl]-cholecalciferol] has an MTD at 4 days [3] of 0.01 mg/kg and an IC50 ([2]; 120 h) of 0.119 nM.

Work on `[2H]C([2H])([2H])C(O)(CCC[C@@](C)(C/C=C\C(O)(C(F)(F)F)C(F)(F)F)[C@H]1CCC2/C(=C/C=C3/C[C@@H](O)C[C@H](O)C3=C)CCC[C@@]21C)C([2H])([2H])[2H]` (stereo partly drawn) [Compound 16, 1,25-Dihydroxy-20S-20-(4-hydroxy-5,5,5-trideutero-4-trideuteromethyl-pentyl)-23Z-ene-26,27-hexafluorocholecalciferol] yielded an MTD at 4 days [3] of 0.0003 mg/kg and an IC50 ([2]; 120 h) of 0.0111 nM.

With `[2H]C([2H])([2H])C(O)(CCCC(C)(C/C=C\C(O)(C(F)(F)F)C(F)(F)F)[C@H]1CCC2/C(=C/C=C3C[C@@H](O)C[C@H](O)C3)CCC[C@@]21C)C([2H])([2H])[2H]` (stereo partly drawn) [Compound 17, 1,25-Dihydroxy-20S-20-(4-hydroxy-5,5,5-trideutero-4-trideuteromethyl-pentyl)-23Z-ene-26,27-hexafluoro-19-nor-cholecalciferol] the MTD at 4 days [3] was 0.0003 mg/kg and the IC50 ([2]; 120 h) was 0.0025 nM.

For `[2H]C([2H])([2H])C(O)(CCCC(C)(C/C=C\C(O)(C(F)(F)F)C(F)(F)F)[C@H]1CCC2/C(=C/C=C3/C[C@@H](O)C[C@H](F)C3=C)CCC[C@@]21C)C([2H])([2H])[2H]` (stereo partly drawn) [Compound 18, 1α-Fluoro-25-hydroxy-20S-20-(4-hydroxy-5,5,5-trideutero-4-trideuteromethyl-pentyl)-23Z-ene-26,27-hexafluorocholecalciferol], the MTD at 4 days [3] was 0.1 mg/kg and the IC50 ([2]; 120 h) was 0.219 nM.

In the case of `[2H]C([2H])([2H])C(O)(CCC[C@@](C)(CC#CC(O)(C(F)(F)F)C(F)(F)F)[C@H]1CCC2/C(=C/C=C3/C[C@@H](O)C[C@H](F)C3=C)CCC[C@@]21C)C([2H])([2H])[2H]` (stereo partly drawn) [Compound 24, 1α-Fluoro-25-hydroxy-20S-20-(4-hydroxy-5,5,5-trideutero-4-trideuteromethyl-pentyl)-23-yne-26,27-hexafluorocholecalciferol], the MTD at 4 days [3] is reported as 0.01 mg/kg and the IC50 ([2]; 120 h) is reported as 0.0213 nM.

In the case of `[2H]C([2H])([2H])C(O)(CCC[C@](C)(C/C=C\C(O)(C(F)(F)F)C(F)(F)F)[C@H]1CCC2/C(=C/C=C3/C[C@@H](O)C[C@H](O)C3=C)CCC[C@@]21C)C([2H])([2H])[2H]` (stereo partly drawn) [Compound 25, 1,25-Dihydroxy-20R-20-(4-hydroxy-5,5,5-trideutero-4-trideuteromethyl-pentyl)-23Z-ene-26,27-hexafluorocholecalciferol], the MTD at 4 days [3] is reported as 0.003 mg/kg and the IC50 ([2]; 120 h) is reported as 0.001 nM.

From US20090099140A1, “20-Alkyl, Gemini Vitamin D3 Compounds and Methods of Use Thereof” (BioXell S.p.A., priority 2005, published 2009)
